Reference: patent publication US20230233584A1, “EXTENDED RELEASE 5-HT RECEPTOR AGONISTS FOR NEUROLOGICAL CONDITIONS” (Diamond Therapeutics Inc., priority 2020, published 2023)

What was measured:
[1] = Body weight during 12-day minipump study; assay type: in vivo; details: rats
[2] = Psilocybin and psilocin plasma pharmacokinetics after s.c. psilocybin; assay type: in vivo, rats; details: rats; for AUC0-tlast, Mean / Cmax, Mean / Cmax/Dose, Mean / tmax, Mean / AUC0-inf, Mean / AUC0-inf/Dose, Mean / Apparent t1/2, Mean / MRT0-inf, Mean: psilocybin in plasma
Description: Psilocybin doses of 0.05, 0.1, 1, 10 mg/kg were used to evaluate psilocybin and psilocin PK in rats. For the doses of psilocybin that positively effect behaviors in the low performers in the PR and 5CSRTT, e.g., 0.05-0.1 mg/kg, the corresponding Cm. of psilocin was ˜7±2 ng/ml at 30 minutes for 0.05 mg/kg, and at a dose of 0.1 mg/kg, the Cm. of psilocin was determined to be ˜12±3 ng/ml at 30 minutes (FIG. 5).
Details of the plasma concentration studies are shown in Tables 1-8 (psilocybin) and 9-16 (psilocin). Values in italics are below the lower level of quantitation (BLQ, <1 ng/mL) but were included in calculations. Values in bold and underlined are considered to be outliers and were omitted from calculations. Measured dosing solution concentrations were 0.0460, 0.0967, 0.948 and 9.65 mg/mL for 0.05, 0.1, 1 and 10 […].

Long Evans rats = assay: Progressive ratio (PR) test, Study A; assay type: in vivo; details: for food responding: low responder subgroup
Description: General: Experiments were conducted to test psilocybin doses in the range of 0.01-0.2 mg/kg psilocybin administered S.C. across progressive ratio (PR) and 5-choice serial reaction time task (5CSRTT) to examine the effect of psilocybin on endophenotypes of motivation and attention. In each study, a population of out-bred Long Evans rats was first tested as a group for response to the PR and 5CSRTT. Each group was then divided into subgroups by tertiles according to performance, and then exposed to various dose levels immediately prior to re-testing at various psilocybin dose levels.
The PR test is used to answer how willing the test subject is to work for food (i.e. test of motivation). A single 45 mg food pellet (i.e. reinforcer) is made available to the test animal based on lever press response. To obtain each successive pellet, the animal must make increasingly more lever presses. Typically, a progression of 2, 4, 6, 9, 12, 15, 20, 25, 32, 40, 50, 62, 77, 95, 118, etc. is used, derived from the equation:
ratio=[5×e^(0.2×reinforcer #)−5]
At some point, the animal gives up as the motor demands to obtain a single pellet are not deemed worthwhile (i.e. animal reaches “break point” defined as animal's failure to earn a food pellet in 20 minutes).
Study A: Psilocybin was administered to rats S.C. at doses of 0.05, 0.1 and 0.2 mg/kg.
Rats were then sub-grouped into tertiles based on the number of lever presses for food at baseline, so that within the test population of 36 animals, 12 animals were identified as low responders, characterized by low motivation and potentially corresponding to low motivation endophenotype representative of clinical depression. Twelve animals were identified as high responders. There was a statistically significant difference between the high and low responders. […] This represents a motivational enhancing effect of psilocybin at the 0.05 mg/kg dose in the cohort corresponding to a low motivation endophenotype representative of clinical depression.

[3] = Minipump infusion of psilocybin over 12 days: plasma/blood exposure; assay type: in vivo, rats; details: psilocybin minipump, days 4-12, rats
Description: A dose of psilocybin, which is free from perceptual and behavioral side effects, was dosed in rats (N=24) continuously over a period of 12 days using an Alzet minipump implanted in rats of approximately 380-390 g body weight. The pump was primed to deliver psilocybin at 5 mg/kg/day pump concentration. The target plasma concentration was 10 ng/ml psilocin with actual plasma concentration 9.3+1.3 ng/ml over the 12 day study period.
Blood was collected from rats on days 4, 8 and 12 to measure levels of psilocybin and psilocin in Group B rats. Blood was collected via saphenous bleed at a standard timepoint which will not interfere with 5-choice testing. Psilocin blood levels were in the range of 8-10 ng/ml over days 4-12, while psilocybin blood levels were in the range of 2-5 ng/ml over days 4-12 (FIG. 7A), corresponding to 10 ng/mL psilocin. […] The present observations recorded for psilocybin/psilocin are occurring at exposure levels of psilocin ˜10 ng/ml (e.g., FIG. 5), likely resulting in a low level of CNS 5-HT2A receptor occupancy, and which is insufficient to elicit cardinal signs of 5-HT2A receptor activation such as WDS/BMC in rats (e.g., FIG. 1B).

Structure (SMILES): CN(C)CCc1c[nH]c2cccc(OP(=O)(O)O)c12 [psilocybin, 4-phosphoryloxy-N,N-dimethyltryptamine]
- Body Weight, Day 1 vs. Day 12, Average ([1]; Psilocybin 4 mg/mL minipump): 20.6
- Body Weight, Day 1 vs. Day 12, Average ([1]; Psilocybin 6 mg/mL minipump): 19.3
- Body Weight, Day 1 vs. Day 12, Average ([1]; Psilocybin 8 mg/mL minipump): 24.4
- body weight over the study course ([1]; psilocybin minipump, 12 day study course): gaining body weight
- weight gain compared with placebo treated animals ([1]; psilocybin minipump, 12 days): gained weight to a lesser amount
- Plasma concentration of psilocybin, Mean ([2]; psilocybin 0.05 mg/kg s.c., 0.25 h): 6.20 ng/mL
- Plasma concentration of psilocybin, Mean ([2]; psilocybin 0.05 mg/kg s.c., 0.5 h): 12.5 ng/mL
- Plasma concentration of psilocybin, Mean ([2]; psilocybin 0.05 mg/kg s.c., 0.75 h): 1.07 ng/mL
- Plasma concentration of psilocybin, Mean ([2]; psilocybin 0.05 mg/kg s.c., 1 h): 19.2 ng/mL
- Plasma concentration of psilocybin, Mean ([2]; psilocybin 0.05 mg/kg s.c., 2 h): 0.594 ng/mL
- Plasma concentration of psilocybin, Mean ([2]; psilocybin 0.05 mg/kg s.c., 4 h): 1.95 ng/mL
- Plasma concentration of psilocybin, Mean ([2]; psilocybin 0.05 mg/kg s.c., 6 h): 2.12 ng/mL
- Plasma concentration of psilocybin, Mean ([2]; psilocybin 0.1 mg/kg s.c., 0.25 h): 21.7 ng/mL
- Plasma concentration of psilocybin, Mean ([2]; psilocybin 0.1 mg/kg s.c., 0.5 h): 28.9 ng/mL
- Plasma concentration of psilocybin, Mean ([2]; psilocybin 0.1 mg/kg s.c., 0.75 h): 2.96 ng/mL
- Plasma concentration of psilocybin, Mean ([2]; psilocybin 0.1 mg/kg s.c., 1 h): 2.19 ng/mL
- Plasma concentration of psilocybin, Mean ([2]; psilocybin 0.1 mg/kg s.c., 2 h): 1.76 ng/mL
- Plasma concentration of psilocybin, Mean ([2]; psilocybin 0.1 mg/kg s.c., 4 h): 2.55 ng/mL
- Plasma concentration of psilocybin, Mean ([2]; psilocybin 0.1 mg/kg s.c., 6 h): 0.921 ng/mL
- Plasma concentration of psilocybin, Mean ([2]; psilocybin 1.0 mg/kg s.c., 0.25 h): 75.2 ng/mL
- Plasma concentration of psilocybin, Mean ([2]; psilocybin 1.0 mg/kg s.c., 0.5 h): 47.3 ng/mL
- Plasma concentration of psilocybin, Mean ([2]; psilocybin 1.0 mg/kg s.c., 0.75 h): 35.8 ng/mL
- Plasma concentration of psilocybin, Mean ([2]; psilocybin 1.0 mg/kg s.c., 1 h): 35.1 ng/mL
- Plasma concentration of psilocybin, Mean ([2]; psilocybin 1.0 mg/kg s.c., 2 h): 2.19 ng/mL
- Plasma concentration of psilocybin, Mean ([2]; psilocybin 1.0 mg/kg s.c., 4 h): 1.12 ng/mL
- Plasma concentration of psilocybin, Mean ([2]; psilocybin 1.0 mg/kg s.c., 6 h): 0.929 ng/mL
- Plasma concentration of psilocybin, Mean ([2]; psilocybin 10 mg/kg s.c., 0.25 h): 1030 ng/mL
- Plasma concentration of psilocybin, Mean ([2]; psilocybin 10 mg/kg s.c., 0.5 h): 1544 ng/mL
- Plasma concentration of psilocybin, Mean ([2]; psilocybin 10 mg/kg s.c., 0.75 h): 344 ng/mL
- Plasma concentration of psilocybin, Mean ([2]; psilocybin 10 mg/kg s.c., 1 h): 269 ng/mL
- Plasma concentration of psilocybin, Mean ([2]; psilocybin 10 mg/kg s.c., 2 h): 101 ng/mL
- Plasma concentration of psilocybin, Mean ([2]; psilocybin 10 mg/kg s.c., 4 h): 1.80 ng/mL
- Plasma concentration of psilocybin, Mean ([2]; psilocybin 10 mg/kg s.c., 6 h): 1.32 ng/mL
- AUC0-tlast, Mean ([2]; psilocybin 0.05 mg/kg s.c.): 10.7 ng·h/mL
- Cmax, Mean ([2]; psilocybin 0.05 mg/kg s.c.): 18.9 ng/mL
- Cmax/Dose, Mean ([2]; psilocybin 0.05 mg/kg s.c.): 377 kg·ng/mL/mg
- tmax, Mean ([2]; psilocybin 0.05 mg/kg s.c.): 36 min
- AUC0-tlast, Mean ([2]; psilocybin 0.1 mg/kg s.c.): 11.4 ng·h/mL
- Cmax, Mean ([2]; psilocybin 0.1 mg/kg s.c.): 31.4 ng/mL
- Cmax/Dose, Mean ([2]; psilocybin 0.1 mg/kg s.c.): 314 kg·ng/mL/mg
- tmax, Mean ([2]; psilocybin 0.1 mg/kg s.c.): 19.3 min
- AUC0-inf, Mean ([2]; psilocybin 1.0 mg/kg s.c.): 47.9 ng·h/mL
- AUC0-inf/Dose, Mean ([2]; psilocybin 1.0 mg/kg s.c.): 47.9 kg·ng·h/mL/mg
- AUC0-tlast, Mean ([2]; psilocybin 1.0 mg/kg s.c.): 53.1 ng·h/mL
- Apparent t1/2, Mean ([2]; psilocybin 1.0 mg/kg s.c.): 26.7 min
- Cmax, Mean ([2]; psilocybin 1.0 mg/kg s.c.): 78.3 ng/mL
- Cmax/Dose, Mean ([2]; psilocybin 1.0 mg/kg s.c.): 78.3 kg·ng/mL/mg
- MRT0-inf, Mean ([2]; psilocybin 1.0 mg/kg s.c.): 44.8 min
- tmax, Mean ([2]; psilocybin 1.0 mg/kg s.c.): 21.4 min
- AUC0-inf, Mean ([2]; psilocybin 10 mg/kg s.c.): 2156 ng·h/mL
- AUC0-inf/Dose, Mean ([2]; psilocybin 10 mg/kg s.c.): 216 kg·ng·h/mL/mg
- AUC0-tlast, Mean ([2]; psilocybin 10 mg/kg s.c.): 1707 ng·h/mL
- Apparent t1/2, Mean ([2]; psilocybin 10 mg/kg s.c.): 34 min
- Cmax, Mean ([2]; psilocybin 10 mg/kg s.c.): 3595 ng/mL
- Cmax/Dose, Mean ([2]; psilocybin 10 mg/kg s.c.): 359 kg·ng/mL/mg
- MRT0-inf, Mean ([2]; psilocybin 10 mg/kg s.c.): 43 min
- tmax, Mean ([2]; psilocybin 10 mg/kg s.c.): 30 min
- food responding (Long Evans rats; 0.05 mg/kg): increase in food responding
- number of lever presses and break point (Long Evans rats; 0.05 mg/kg, low responders, P<0.05 vs. vehicle): significant increase
- session duration (Long Evans rats; 0.05 mg/kg, low responders, P=0.07 vs. vehicle): 10.8 ± 1.9 min
- food responding (Long Evans rats; 0.1 mg/kg): did not produce an increase in food responding
- number of lever presses or break points (Long Evans rats; 0.05, 0.1 and 0.2 mg/kg S.C., entire study population of 36 rats): None of these doses were observed to cause obvious changes
- response in PR test (Long Evans rats; 0.05-0.2 mg/kg S.C., high responder subgroup): no effect on response
- psilocybin blood levels [3]: 2 to 5 ng/mL
